Species: Rattus norvegicus
Test: DrugMatrix - Regimen: Daily Repeat
Type: toxicity, organism-based, Sprague-Dawley
Parameters: regimen Daily Repeat, gender Male, age 6-8 weeks
Details: in vivo, po, route oral GAVAGE, vehicle 100 % WATER; for ABSOLUTE BASOPHIL / ABSOLUTE EOSINOPHIL / ABSOLUTE LYMPHOCYTE / ABSOLUTE MONOCYTE / ABSOLUTE SEGMENTED NEUTROPHIL / BASOPHIL / EOSINOPHIL / ERYTHROCYTE COUNT / HEMATOCRIT / HEMOGLOBIN / LEUKOCYTE COUNT / LYMPHOCYTE / MEAN CORPUSCULAR HEMOGLOBIN / MEAN CORPUSCULAR HEMOGLOBIN CONCENTRATION / MEAN CORPUSCULAR VOLUME / MONOCYTE / NEUTROPHIL / NUCLEATED RED BLOOD CELLS / PLATELET COUNT: tissue Blood; for ALANINE AMINOTRANSFERASE / ALBUMIN / ALKALINE PHOSPHATASE / ASPARTATE AMINOTRANSFERASE / BLOOD UREA NITROGEN / CARBON DIOXIDE / CHLORIDE / CHOLESTEROL / CREATINE PHOSPHOKINASE / CREATININE / GLUCOSE / LACTATE DEHYDROGENASE / LIPASE / PHOSPHORUS / SODIUM / TOTAL BILIRUBIN / TOTAL PROTEIN / URIC ACID: tissue Plasma
[1] = 200 mg/kg, 120 h, dose level Low, time 5 day
[2] = 1100 mg/kg, 72 h, dose level High, time 3 day
[3] = 1100 mg/kg, 120 h, dose level High, time 5 day

CC1(C)S[C@@H]2[C@H](NC(=O)[C@H](N)c3ccc(O)cc3)C(=O)N2[C@H]1C(=O)O [AMOXICILLIN]
ABSOLUTE BASOPHIL [1]: 0 CELLS/uL
ABSOLUTE EOSINOPHIL [1]: 0 CELLS/uL
ABSOLUTE LYMPHOCYTE [1]: 6222 CELLS/uL
ABSOLUTE MONOCYTE [1]: 124 CELLS/uL
ABSOLUTE SEGMENTED NEUTROPHIL [1]: 487.33 CELLS/uL
BASOPHIL [1]: 0%
EOSINOPHIL [1]: 0%
ERYTHROCYTE COUNT [1]: 5.52 x10E6/uL
HEMATOCRIT [1]: 34.17%
HEMOGLOBIN [1]: 13.17 G/DL
LEUKOCYTE COUNT [1]: 6.83 x10E3/uL
LYMPHOCYTE [1]: 90.67%
MEAN CORPUSCULAR HEMOGLOBIN [1]: 23.87 pg
MEAN CORPUSCULAR HEMOGLOBIN CONCENTRATION [1]: 38.53 G/DL
MEAN CORPUSCULAR VOLUME [1]: 61.87 fL
MONOCYTE [1]: 2%
NEUTROPHIL [1]: 7.33%
NUCLEATED RED BLOOD CELLS [1]: 0 /100WBC
PLATELET COUNT [1]: 1169.67 x10E3/uL
ALANINE AMINOTRANSFERASE [1]: 61.67 u/L
ALBUMIN [1]: 4.07 G/DL
ALKALINE PHOSPHATASE [1]: 419.67 u/L
ASPARTATE AMINOTRANSFERASE [1]: 85.33 u/L
BLOOD UREA NITROGEN [1]: 19 mg/dL
CARBON DIOXIDE [1]: 35 mmol/L
CHLORIDE [1]: 99.33 MEQ/L
CHOLESTEROL [1]: 64.33 mg/dL
CREATINE PHOSPHOKINASE [1]: 366.67 u/L
CREATININE [1]: 0.22 mg/dL
GLUCOSE [1]: 133.67 mg/dL
LACTATE DEHYDROGENASE [1]: 112.33 u/L
LIPASE [1]: 9 u/L
PHOSPHORUS [1]: 11.07 mg/dL
SODIUM [1]: 143.8 MEQ/L
TOTAL BILIRUBIN [1]: 0.17 mg/dL
TOTAL PROTEIN [1]: 6.17 G/DL
URIC ACID [1]: 0.73 mg/dL
ABSOLUTE BASOPHIL [2]: 0 CELLS/uL
ABSOLUTE EOSINOPHIL [2]: 0 CELLS/uL
ABSOLUTE LYMPHOCYTE [2]: 13682.33 CELLS/uL
ABSOLUTE MONOCYTE [2]: 492.67 CELLS/uL
ABSOLUTE SEGMENTED NEUTROPHIL [2]: 958.33 CELLS/uL
BASOPHIL [2]: 0%
EOSINOPHIL [2]: 0%
ERYTHROCYTE COUNT [2]: 6.16 x10E6/uL
HEMATOCRIT [2]: 39.43%
HEMOGLOBIN [2]: 14.47 G/DL
LEUKOCYTE COUNT [2]: 15.13 x10E3/uL
LYMPHOCYTE [2]: 90%
MEAN CORPUSCULAR HEMOGLOBIN [2]: 23.5 pg
MEAN CORPUSCULAR HEMOGLOBIN CONCENTRATION [2]: 36.7 G/DL
MEAN CORPUSCULAR VOLUME [2]: 64.03 fL
MONOCYTE [2]: 3.33%
NEUTROPHIL [2]: 6.67%
NUCLEATED RED BLOOD CELLS [2]: 0 /100WBC
PLATELET COUNT [2]: 1311.33 x10E3/uL
ALANINE AMINOTRANSFERASE [2]: 52.33 u/L
ALBUMIN [2]: 4.43 G/DL
ALKALINE PHOSPHATASE [2]: 365.33 u/L
ASPARTATE AMINOTRANSFERASE [2]: 83 u/L
BLOOD UREA NITROGEN [2]: 16.33 mg/dL
CARBON DIOXIDE [2]: 32 mmol/L
CHLORIDE [2]: 101.33 MEQ/L
CHOLESTEROL [2]: 79.67 mg/dL
CREATINE PHOSPHOKINASE [2]: 343 u/L
CREATININE [2]: 0.2 mg/dL
GLUCOSE [2]: 138 mg/dL
LACTATE DEHYDROGENASE [2]: 129.67 u/L
LIPASE [2]: 9.33 u/L
PHOSPHORUS [2]: 12.4 mg/dL
SODIUM [2]: 142.9 MEQ/L
TOTAL BILIRUBIN [2]: 0.17 mg/dL
TOTAL PROTEIN [2]: 6.17 G/DL
URIC ACID [2]: 2.13 mg/dL
ABSOLUTE BASOPHIL [3]: 0 CELLS/uL
ABSOLUTE EOSINOPHIL [3]: 0 CELLS/uL
ABSOLUTE LYMPHOCYTE [3]: 7076 CELLS/uL
ABSOLUTE MONOCYTE [3]: 76 CELLS/uL
ABSOLUTE SEGMENTED NEUTROPHIL [3]: 448 CELLS/uL
BASOPHIL [3]: 0%
EOSINOPHIL [3]: 0%
ERYTHROCYTE COUNT [3]: 6.01 x10E6/uL
HEMATOCRIT [3]: 37.2%
HEMOGLOBIN [3]: 14.1 G/DL
LEUKOCYTE COUNT [3]: 7.6 x10E3/uL
LYMPHOCYTE [3]: 92.33%
MEAN CORPUSCULAR HEMOGLOBIN [3]: 23.5 pg
MEAN CORPUSCULAR HEMOGLOBIN CONCENTRATION [3]: 37.9 G/DL
MEAN CORPUSCULAR VOLUME [3]: 61.93 fL
MONOCYTE [3]: 1%
NEUTROPHIL [3]: 6.67%
NUCLEATED RED BLOOD CELLS [3]: 0 /100WBC
PLATELET COUNT [3]: 1145.67 x10E3/uL
ALANINE AMINOTRANSFERASE [3]: 59.33 u/L
ALBUMIN [3]: 4.43 G/DL
ALKALINE PHOSPHATASE [3]: 434 u/L
ASPARTATE AMINOTRANSFERASE [3]: 94.33 u/L
BLOOD UREA NITROGEN [3]: 17.33 mg/dL
CARBON DIOXIDE [3]: 33 mmol/L
CHLORIDE [3]: 100.33 MEQ/L
CHOLESTEROL [3]: 75 mg/dL
CREATINE PHOSPHOKINASE [3]: 622.67 u/L
CREATININE [3]: 0.12 mg/dL
GLUCOSE [3]: 113 mg/dL
LACTATE DEHYDROGENASE [3]: 161.33 u/L
LIPASE [3]: 9 u/L
PHOSPHORUS [3]: 10.27 mg/dL
SODIUM [3]: 144.67 MEQ/L
TOTAL BILIRUBIN [3]: 0.13 mg/dL
TOTAL PROTEIN [3]: 5.67 G/DL
URIC ACID [3]: 0.8 mg/dL

From ChEMBL document CHEMBL3885881, “DrugMatrix”
